Assay results: PMC9742639, “Inhibition of glycogen synthase kinase-3-beta (GSK3β) blocks nucleocapsid phosphorylation and SARS-CoV-2 replication” (Molecular Biomedicine, 2022)

Legend:
[1] = test system: SARS-CoV-2 variant BA.1 (omicron); format: cell-based
[2] = test system: SARS-CoV-2 variant B.1.617.2 (delta); format: cell-based

**Q.** What does the source list for `CSc1ccc(-n2cnc3ccc(-c4nnc(CCc5cccc(C#N)c5)o4)cc32)cc1` [P-0717632]?
**A.** effect on viral titres, BA.1 [1]: reduced intracellular viral titres; effect on viral titres, B.1.617.2 [2]: reduced intracellular viral titres
